These results are taken from PubChem BioAssay AID588503 (Sanford-Burnham Center for Chemical Genomics, 2011).

“And” between values parts separate entries of the source, which are not always exact repeats. Equal entries are not always repeated. The source made the active and inactive calls.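 How the source made its calls: active means compounds whose mean half-maximal effective concentration EC50 is at most 20 µM; inactive means the rest.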 A value given as a limit tells only on which side of the number the result lay.

In the experiment the target is G-protein coupled receptor 35 (Homo sapiens) (UniProt Q9HC97). The experiment in a line: GPR35 activation by analogs, SAR follow-up, selectivity assay for NTR1 agonist project, imaging, U2OS, beta-arrestin-GFP (AID 588503). The note with it: GPR35-U2OS beta-arrestin-GFP translocation imaging.
Sequence of G-protein coupled receptor 35 (Homo sapiens) (Q9HC97 whole entry, looked up): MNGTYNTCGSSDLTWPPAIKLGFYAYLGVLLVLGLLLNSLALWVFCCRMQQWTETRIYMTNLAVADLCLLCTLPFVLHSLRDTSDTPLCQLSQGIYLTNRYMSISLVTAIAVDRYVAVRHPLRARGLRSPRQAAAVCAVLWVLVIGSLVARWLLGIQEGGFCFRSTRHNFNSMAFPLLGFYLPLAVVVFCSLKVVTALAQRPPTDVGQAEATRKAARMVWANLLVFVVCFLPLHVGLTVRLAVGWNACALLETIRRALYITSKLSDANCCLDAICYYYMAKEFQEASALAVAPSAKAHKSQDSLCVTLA
For `COc1cc2c3nnc(-c4ccc(F)cc4)c-3cn(Cc3ccc(C)cc3)c2cc1OC`, the EC50 was 8.57 µM and 7.58 µM.
Regarding `COc1ccccc1-c1cc(C(=O)N[C@@H](CC(C)C)C(=O)O)nn1-c1ccnc2cc(Cl)ccc12`, the EC50 is > 40 µM (inactive).
To `COc1cccc(OC)c1-c1cc(C(=O)N[C@@H](CC(C)C)C(=O)O)nn1-c1ccnc2cc(Cl)ccc12` belongs > 40 µM (inactive); to `COc1cc2c3nnc(-c4ccc(F)cc4)c-3cn(Cc3ccc(F)cc3)c2cc1OC`, 13.6 µM; to `COc1cc2c3nnc(-c4ccc(F)cc4)c-3cn(Cc3cccc(C)c3)c2cc1OC`, 6.07 µM.
Regarding `Cc1ccc(-n2ncc3c(N4CCN(c5ccccc5)CC4)ncnc32)c(C)c1`, the EC50 is > 40 µM (inactive).
Take `O=S(=O)(c1ccc(-c2csc(N/N=C/c3ccco3)n2)cc1)N1CCCC1`: the EC50 was > 40 µM (inactive).
For `CC(C)C[C@H](NC(=O)c1cn(-c2ccnc3cc(Cl)ccc23)c(-c2c(Cl)cccc2Cl)n1)C(=O)O`, the EC50 is > 40 µM (inactive).
`CCN(CC)S(=O)(=O)c1ccc(-c2csc(N/N=C/c3ccco3)n2)cc1`: the EC50 entry is “inactive”.
Turning to `COc1cccc(OC)c1-c1nc(C(=O)N[C@@H](CC(C)C)C(=O)O)cn1-c1ccnc2ccccc12`, the EC50 is > 40 µM (inactive).
With `COc1cc2c3nnc(-c4ccc(Cl)cc4)c-3cn(Cc3ccc(C)cc3)c2cc1OC`, the EC50 was > 40 µM (inactive).
The value for `Cc1ccc(C)c(-n2ncc3c(N4CCN(c5ccccc5)CC4)ncnc32)c1` was > 40 µM (inactive).
For the molecule `Cc1ccc(-n2ncc3c(N4CCN(c5ccccc5F)CC4)ncnc32)c(C)c1`, the EC50 was > 40 µM (inactive).
On to `COc1cc2c3nnc(-c4ccc(F)cc4)c-3cn(Cc3ccccc3)c2cc1OC`, for which the EC50 is 9.82 µM.
As to `COc1cc2c3nnc(-c4ccc(C)cc4)c-3cn(Cc3ccc(F)cc3)c2cc1OC`, the 50% effective concentration (EC50) is 8.31 µM.
Take `Cc1cccc(C)c1-c1nc(C(=O)N[C@@H](CC(C)C)C(=O)O)cn1-c1ccnc2cc(Cl)ccc12`: the EC50 was > 40 µM (inactive).
With `COc1cccc(OC)c1-c1nc(C(=O)N[C@@H](CC(C)C)C(=O)O)cn1-c1cccc2ccccc12`, the EC50 was > 40 µM (inactive).
For `COc1cc2nc(-c3ccccc3)nc(N3CCN(c4ccccc4OC)CC3)c2cc1OC`, the EC50 was > 40 µM (inactive).
Regarding `COc1ccc(-c2nnc3c4cc(OC)c(OC)cc4n(Cc4ccc(C)cc4)cc2-3)cc1`, the EC50 was 6.26 µM.
For `COc1ccc(Cn2c(SCc3ccccc3C)nc3cc(OC)c(OC)cc3c2=N)cc1Cl`, the EC50 is > 40 µM (inactive).
For the molecule `COc1cc2nc(C3CCC3)nc(N3CCN(c4ccccc4C)CC3)c2cc1OC`, the EC50 was > 40 µM (inactive).
The value for `CCOc1ccc(-c2nnc3c4cc(OC)c(OC)cc4n(Cc4ccc(C)cc4)cc2-3)cc1` was > 40 µM (inactive); that for `COc1cc2c3nnc(-c4ccc(Cl)cc4)c-3cn(Cc3ccccc3)c2cc1OC` was 10.5 µM.
Consider `Clc1ccccc1-n1ncc2c(N3CCN(c4ccccc4)CC3)ncnc21`, for which the EC50 is > 40 µM (inactive).
The value for `COc1cccc(OC)c1-c1nc(C(=O)N[C@@H](CC(C)C)C(=O)O)cn1-c1ccnc2cc(Cl)ccc12` was > 40 µM (inactive); that for `CCOc1ccc(-c2nnc3c4cc(OC)c(OC)cc4n(Cc4ccccc4)cc2-3)cc1` was “inactive”.
`COc1ccccc1N1CCN(c2ncnc3c2cnn3-c2ccc(C)cc2C)CC1`: the EC50 is > 40 µM (inactive).
To `CN(C)S(=O)(=O)c1ccc(-c2csc(N/N=C/c3cccs3)n2)cc1` belongs > 40 µM (inactive); to `COc1cc2c3nnc(-c4ccc(Cl)cc4)c-3cn(Cc3ccc(F)cc3)c2cc1OC`, 8.32 µM; to `COc1cccc(N2CCN(c3ncnc4c3cnn4-c3ccc(C)cc3C)CC2)c1`, > 40 µM (inactive).
As to `Cc1ccc(Cn2cc3c(-c4ccc(F)cc4)nnc-3c3cc4c(cc32)OCO4)cc1`, the EC50 was > 40 µM (inactive).
For `COc1ccc(Cn2c(SCc3ccccc3)nc3cc(OC)c(OC)cc3c2=N)cc1Cl`, the EC50 is > 40 µM (inactive).
As to `COc1cc2nc(C3CCC3)nc(N3CCN(c4ccccc4OC)CC3)c2cc1OC`, the EC50 was > 40 µM (inactive).
On to `COc1cc2c3nnc(-c4ccccc4)c-3cn(Cc3ccccc3)c2cc1OC`, for which the EC50 result is “inactive”.
As for `COc1ccc(Cn2c(SCc3cc(C)ccc3C)nc3cc(OC)c(OC)cc3c2=N)cc1Cl`, the EC50 is > 40 µM (inactive).
Consider `COc1ccc(Cn2c(SCc3ccc(C)cc3)nc3cc(OC)c(OC)cc3c2=N)cc1Cl`, for which the EC50 entry was “inactive”.
To `COc1ccc(Cn2c(SCc3cccc(C(F)(F)F)c3)nc3cc(OC)c(OC)cc3c2=N)cc1Cl` belongs > 40 µM (inactive); to `COc1cc2c3nnc(-c4ccc(C)cc4)c-3cn(Cc3ccc(C)cc3)c2cc1OC`, 8.86 µM.
The value for `CN(C)S(=O)(=O)c1ccc(-c2csc(N/N=C/c3ccco3)n2)cc1` was > 40 µM (inactive); that for `Cc1cc(Cl)ccc1-n1ncc2c(N3CCN(c4ccccc4)CC3)ncnc21` was > 40 µM (inactive).
For `COc1cc2c3nnc(-c4ccc(C)c(C)c4)c-3cn(Cc3ccccc3)c2cc1OC`, the EC50 entry is “inactive”.
In the case of `CCOc1ccc(-c2nnc3c4cc(OC)c(OC)cc4n(Cc4ccc(F)cc4)cc2-3)cc1`, the EC50 result was “inactive”.
